Data reported in PubChem BioAssay (NCI).
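Interpolation was linear, between the two tested concentrations surrounding the appropriate level; five concentrations were tested over 48 hours in 96-well plates. At the TGI there is no net growth.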

Experiments:
Experiment in all cases: NCI-60 cell line screen, 48 h
786-0 renal = test system: 786-0 renal
A498 renal = test system: A498 renal
A549 NSCLC = test system: A549 NSCLC
ACHN renal = test system: ACHN renal
BT-549 breast = test system: BT-549 breast
CAKI-1 renal = test system: CAKI-1 renal
CCRF-CEM leukemia = test system: CCRF-CEM leukemia
COLO 205 colon = test system: COLO 205 colon
DU-145 prostate = test system: DU-145 prostate
EKVX NSCLC = test system: EKVX NSCLC
HCC-2998 colon = test system: HCC-2998 colon
HCT-116 colon = test system: HCT-116 colon
HCT-15 colon = test system: HCT-15 colon
HL-60(TB) leukemia = test system: HL-60(TB) leukemia
HOP-92 NSCLC = test system: HOP-92 NSCLC
HS 578T breast = test system: HS 578T breast
HT29 colon = test system: HT29 colon
IGROV1 ovarian = test system: IGROV1 ovarian
K-562 leukemia = test system: K-562 leukemia
KM12 colon = test system: KM12 colon
LOX IMVI melanoma = test system: LOX IMVI melanoma
M14 melanoma = test system: M14 melanoma
MALME-3M melanoma = test system: MALME-3M melanoma
MCF7 breast = test system: MCF7 breast
MDA-MB-231 breast = test system: MDA-MB-231 breast
MDA-MB-435 = test system: MDA-MB-435
MDA-N = test system: MDA-N
MOLT-4 leukemia = test system: MOLT-4 leukemia
NCI-H226 lung = test system: NCI-H226 lung
NCI-H23 lung = test system: NCI-H23 lung
NCI-H460 lung = test system: NCI-H460 lung
NCI-H522 lung = test system: NCI-H522 lung
NCI/ADR-RES ovarian = test system: NCI/ADR-RES ovarian
OVCAR-3 ovarian = test system: OVCAR-3 ovarian
OVCAR-4 ovarian = test system: OVCAR-4 ovarian
OVCAR-5 ovarian = test system: OVCAR-5 ovarian
OVCAR-8 ovarian = test system: OVCAR-8 ovarian
PC-3 prostate = test system: PC-3 prostate
RXF 393 renal = test system: RXF 393 renal
SF-268 CNS = test system: SF-268 CNS
SF-295 CNS = test system: SF-295 CNS
SF-539 CNS = test system: SF-539 CNS
SK-MEL-2 melanoma = test system: SK-MEL-2 melanoma
SK-MEL-28 melanoma = test system: SK-MEL-28 melanoma
SK-MEL-5 melanoma = test system: SK-MEL-5 melanoma
SK-OV-3 ovarian = test system: SK-OV-3 ovarian
SN12C renal = test system: SN12C renal
SNB-19 CNS = test system: SNB-19 CNS
SW-620 colon = test system: SW-620 colon
T-47D breast = test system: T-47D breast
TK-10 renal = test system: TK-10 renal
U251 CNS = test system: U251 CNS
UACC-257 melanoma = test system: UACC-257 melanoma
UACC-62 melanoma = test system: UACC-62 melanoma
UO-31 renal = test system: UO-31 renal
HOP-62 NSCLC = test system: HOP-62 NSCLC
RPMI-8226 leukemia = test system: RPMI-8226 leukemia
SNB-75 CNS = test system: SNB-75 CNS
SR leukemia = test system: SR leukemia

For `CNC(C#N)c1ccc(OC)cc1` (stereo unspecified), the TGI (786-0 renal) was > 100 µM, the TGI (A498 renal) was > 100 µM and the TGI (A549 NSCLC) was > 100 µM. The TGI (ACHN renal) was > 100 µM, the TGI (BT-549 breast) was > 100 µM and the TGI (CAKI-1 renal) was > 100 µM. The TGI (CCRF-CEM leukemia) was > 100 µM, the TGI (COLO 205 colon) was > 100 µM and the TGI (DU-145 prostate) was > 100 µM. The TGI (EKVX NSCLC) was > 100 µM, the TGI (HCC-2998 colon) was > 100 µM and the TGI (HCT-116 colon) was > 100 µM. The TGI (HCT-15 colon) was > 100 µM, the TGI (HL-60(TB) leukemia) was > 100 µM and the TGI (HOP-92 NSCLC) was > 100 µM. The TGI (HS 578T breast) was > 100 µM, the TGI (HT29 colon) was > 100 µM and the TGI (IGROV1 ovarian) was > 100 µM. For the same molecule, the TGI (K-562 leukemia) was > 100 µM, the TGI (KM12 colon) was > 100 µM and the TGI (LOX IMVI melanoma) was > 100 µM. The TGI (M14 melanoma) was > 100 µM, the TGI (MALME-3M melanoma) was > 100 µM and the TGI (MCF7 breast) was > 100 µM. For the same molecule, the TGI (MDA-MB-231 breast) was > 100 µM, the TGI (MDA-MB-435) was > 100 µM and the TGI (MDA-N) was > 100 µM. For the same molecule, the TGI (MOLT-4 leukemia) was > 100 µM, the TGI (NCI-H226 lung) was > 100 µM and the TGI (NCI-H23 lung) was > 100 µM. The TGI (NCI-H460 lung) was > 100 µM, the TGI (NCI-H522 lung) was > 100 µM and the TGI (NCI/ADR-RES ovarian) was > 100 µM. For the same molecule, the TGI (OVCAR-3 ovarian) was > 100 µM, the TGI (OVCAR-4 ovarian) was > 100 µM and the TGI (OVCAR-5 ovarian) was > 100 µM. For the same molecule, the TGI (OVCAR-8 ovarian) was > 100 µM, the TGI (PC-3 prostate) was > 100 µM and the TGI (RXF 393 renal) was > 100 µM. For the same molecule, the TGI (SF-268 CNS) was > 100 µM, the TGI (SF-295 CNS) was > 100 µM and the TGI (SF-539 CNS) was > 100 µM. For the same molecule, the TGI (SK-MEL-2 melanoma) was > 100 µM, the TGI (SK-MEL-28 melanoma) was > 100 µM and the TGI (SK-MEL-5 melanoma) was > 100 µM. The TGI (SK-OV-3 ovarian) was > 100 µM, the TGI (SN12C renal) was > 100 µM and the TGI (SNB-19 CNS) was > 100 µM. For the same molecule, the TGI (SW-620 colon) was > 100 µM, the TGI (T-47D breast) was > 100 µM and the TGI (TK-10 renal) was > 100 µM. For the same molecule, the TGI (U251 CNS) was > 100 µM, the TGI (UACC-257 melanoma) was > 100 µM and the TGI (UACC-62 melanoma) was > 100 µM. The TGI (UO-31 renal) was > 100 µM.

With `CC(C)(Cl)C(Br)CCC(C)(Cl)C(Br)CBr` (stereo unspecified) the TGI (786-0 renal) was 61.9 µM, the TGI (A498 renal) was 49.6 µM and the TGI (A549 NSCLC) was > 100 µM. The TGI (ACHN renal) was 52.6 µM, the TGI (BT-549 breast) was 42.9 µM and the TGI (CCRF-CEM leukemia) was 76.9 µM. It also gave a TGI (COLO 205 colon) of 33.8 µM, a TGI (DU-145 prostate) of 85.2 µM and a TGI (EKVX NSCLC) of 84.2 µM. For the same molecule, the TGI (HCC-2998 colon) was > 100 µM, the TGI (HCT-116 colon) was 47.5 µM and the TGI (HCT-15 colon) was 61.9 µM. The TGI (HL-60(TB) leukemia) was 35.4 µM, the TGI (HOP-62 NSCLC) was 57.3 µM and the TGI (HOP-92 NSCLC) was 46 µM. For the same molecule, the TGI (HS 578T breast) was 82.9 µM, the TGI (HT29 colon) was 46.8 µM and the TGI (IGROV1 ovarian) was 65.4 µM. For the same molecule, the TGI (K-562 leukemia) was > 100 µM, the TGI (M14 melanoma) was > 100 µM and the TGI (MALME-3M melanoma) was 41 µM. It also gave a TGI (MCF7 breast) of 41.7 µM, a TGI (MDA-MB-231 breast) of 47.2 µM and a TGI (MDA-MB-435) of 73.6 µM. The TGI (MDA-N) was 81.9 µM, the TGI (MOLT-4 leukemia) was > 100 µM and the TGI (NCI-H226 lung) was 60.6 µM. For the same molecule, the TGI (NCI-H23 lung) was 55.6 µM, the TGI (NCI-H460 lung) was 40.5 µM and the TGI (NCI-H522 lung) was 35.8 µM. The TGI (NCI/ADR-RES ovarian) was 68 µM, the TGI (OVCAR-3 ovarian) was 41.9 µM and the TGI (OVCAR-4 ovarian) was 87.3 µM. For the same molecule, the TGI (OVCAR-5 ovarian) was 48.7 µM, the TGI (OVCAR-8 ovarian) was > 100 µM and the TGI (PC-3 prostate) was 71 µM. The TGI (RPMI-8226 leukemia) was 42.2 µM, the TGI (RXF 393 renal) was 65.9 µM and the TGI (SF-268 CNS) was > 100 µM. It also gave a TGI (SF-295 CNS) of 46 µM, a TGI (SF-539 CNS) of 49.7 µM and a TGI (SK-MEL-2 melanoma) of 35.4 µM. For the same molecule, the TGI (SK-MEL-28 melanoma) was 79.7 µM, the TGI (SK-MEL-5 melanoma) was 34.5 µM and the TGI (SK-OV-3 ovarian) was > 100 µM. For the same molecule, the TGI (SN12C renal) was 54.2 µM, the TGI (SNB-19 CNS) was > 100 µM and the TGI (SNB-75 CNS) was 93.9 µM. It also gave a TGI (SR leukemia) of 22.2 µM, a TGI (SW-620 colon) of 95.5 µM and a TGI (T-47D breast) of 81.3 µM. It also gave a TGI (TK-10 renal) of 99.6 µM, a TGI (U251 CNS) of 69.5 µM and a TGI (UACC-257 melanoma) of 51 µM. The TGI (UACC-62 melanoma) was > 100 µM and the TGI (UO-31 renal) was > 100 µM.
